Experimental data reported in paper PMC5432742, “Vasorelaxing and antihypertensive activities of synthesized peptides derived from computer-aided simulation of pepsin hydrolysis of yam dioscorin” (Botanical Studies, 2014).
Like-named read-outs stand apart in the source and are kept apart here.

Experiments:
ACE = details: read-out: ACE inhibition IC50, cited from earlier work
Text: (§1) The untreated high blood pressure is considered to be the central factor in stroke which accounts approximately 33% deaths (Mark and Davis [2000]). There are several classes of pharmacological agents which have been used in the treatment of hypertension, and one class of antihypertensive drugs known as angiotensin I converting enzyme (ACE) inhibitors is associated with a low rate of adverse side effects and is the preferred class of antihypertensive agents when treating patients with concurrent secondary diseases or cardiovascular diseases (Zaman et al. [2002]).

[1] = tested on: spontaneously hypertensive rats (SHRs); details: ref Fujita et al. 2000; cited from earlier work
Text: as §1, with “[2002]). ACE (peptidyldipeptide hydr ...” for “[2002]).”

[2] = tested on: endothelium-intact rat thoracic aortic rings; assay: Relaxation of phenylephrine-induced tension in endothelium-intact rat thoracic aortic rings ex vivo; design: species or system Sprague-Dawley rat
Experimental: (§2) Effects of four peptides and captopril on vascular tension were examined following the previous method (Wang et al. [2001]). Male Sprague–Dawley rats were killed by decapitation, and sections of the thoracic aorta between the aortic arch and the diaphragm were excised carefully and placed in a Petri dish with oxygenated Krebs’ buffer (120 mM NaCl, 4.5 mM KCl, 2.5 mM CaCl2, 1 mM MgSO4, 27 mM NaHCO3, 1 mM KH2PO4, 10 mM glucose, pH 7.4, with 95% O2, 5% CO2) and gently dissected free of fat and connective tissue. The endothelium was removed by gently rubbing the intimal layer of the vessel with a wire. The isolated aortic rings, 3 to 4 mm in length with or without the endothelium, were fixed isometrically in organ chambers under passive tension (1.8 g) for 60 min. Changes in vascular tension were recorded with a polygraph (Gould, model 2400, Valley View, OH, USA) via a force displacement transducer (Grass FT03, Quincy, MA, USA). After equilibration, the near maximal concentration was induced by PE (0.3 μM). When the rings achieved a stable tension, the acetylcholine (3 μM) was added to the bath to assess endothelial integrity. The relaxing effects of KTCGY, KTCGYKTCGY, TCGYTCGY, KRIHF, and captopril on PE (0.3 μM) pre-contracted endothelium-intact or endothelium-denuded aortic rings were examined. When PE treatments reached a steady plateau (considered as 100%), KTCGY, KTCGYKTCGY, TCGYTCGY, KRIHF, and captopril were then tested at cumulative concentrations (0.1 to 100 μM) for their ability to induce aortic ring relaxations.
(§3) Figure 2 Vasorelaxing activity of endothelium-intact and endothelium-denuded SD rat aortic rings in phenylephrine-induced tensions. (A) KTCGY, (B) KTCGYKTCGY, (C) TCGYTCGY, (D) KRIHF, and (E) captopril on Data were expressed as mean ± S.E.

[3] = tested on: endothelium-denuded rat thoracic aortic rings; assay: Relaxation of phenylephrine-induced tension in endothelium-denuded rat thoracic aortic rings ex vivo; design: species or system Sprague-Dawley rat; details: PE 0.3 μM; for PE-induced endothelium-denuded aortic ring tension (PE plateau = 100%): 100 μM test substance, endothelium-denuded rings; for aortic ring relaxation in endothelium-denuded rings (in words): cumulative 0.1 to 100 μM
Experimental: as §2, §3

[4] = trolox equivalents (TE); ref Hernández-Ledesma et al. 2005; cited from earlier work
[5] = tested on: spontaneously hypertensive rats (SHRs); assay: Antihypertensive effect in SHRs after a single oral administration (tail-cuff blood pressure); type: in vivo, rat; details: SHR, N = 6
Experimental: Experimental procedures were reviewed and approved by the Institutional Animal Care and Use Committee of Taipei Medical University (LAC-95-0076, LAC-97-0117, and LAC-100-0038). Male SHRs (18–28 weeks old; from National Laboratory Animal Center, Taipei, Taiwan) were housed individually in steel cages kept at 24°C under a 12-h light–dark cycle, with free access to water and a standard mouse/rat chow (Prolab® RMH2500, 5P14 Diet, PMI Nutrition International Brentwood, MO, USA). SHRs were randomly divided into 4 groups (N = 6 of each group), KTCGY or KRIHF at concentration of 10 mg/kg and 20 mg/kg was orally administered to the SHRs, and the SBP were measured after 0, 2, 4, 6, 8, and 24 h by using an indirect tail-cuff blood pressure meter (BP98-A, Softron, Tokyo, Japan). Distilled water (0.5 ml) was administered to the SHRs in the blank group. The captopril (10 mg/kg) was used as the positive control.
Figure 3 Antihypertensive activity of (A) KTCGY and (B) KRIHF on systolic blood pressure of spontaneously hypertensive rats (SHRs). KTCGY or KRIHF at concentration of 10 mg/kg and 20 mg/kg was orally administered to the SHRs (6 rats/group), and the SBP were measured after 0, 2, 4, 6, 8, and 24 h by using an indirect tail-cuff blood pressure meter (BP98-A, Softron, Tokyo, Japan). Distilled water (0.5 ml) was administered to the SHRs in the blank group. The captopril (10 mg/kg) was used as the positive control.

ACE (rabbit lung) = assay: ACE inhibitory assay screening (FAPGG substrate, absorbance at 345 nm); type: biochemical; details: peptide 40 μM; 0.5 mM FAPGG in 50 mM Tris-HCl pH 7.5, 0.3 M NaCl; 90 sec, room temperature
Experimental: The ACE inhibitory activity was measured following the previous reports with some modifications (Hsu et al. [2002]). Each synthesized peptide was dissolved in DMSO to 4 mM as stocks. The 1 ml, 0.5 mM FAPGG (dissolved in 50 mM Tris–HCl buffer, pH 7.5, containing 0.3 M NaCl) was mixed with 12.2 μl peptide solution, and then twenty μl ([…]) of commercial ACE (stock solution, 1U/ ml) was added. The 0.1% DMSO solution was used instead of sample solution for blank experiments (ΔAblank/min). The decreased absorbance at 345 nm (ΔAsample/min) was recorded during 90 sec at room temperature. The ACE inhibition (%) was calculated as followed: [1 - (ΔAsample/min ÷ ΔAblank/min)] × 100.
Figure 1 ACE inhibition by 23 synthesized peptides (40 μM) derived from a computer-aided simulation of pepsin hydrolysis of yam dioscorin. The 0.1% DMSO solution was used instead of sample solution for blank experiments (ΔAblank/min). The decreased absorbance at 345 nm (ΔAsample/min) was recorded during 90 sec at room temperature. The ACE inhibition (%) was calculated as followed: [1 - (ΔAsample/min ÷ ΔAblank/min)] × 100. The synthesized peptides included (1) KTCGNGME, (2) PPCSE, (3) CDDRVIRTPLT, (4) KTCGY, (5) PPCTE, (6) RDNGVIF, (7) KRIHF, (8) RRDY, (9) RSVF, (10) PTNF, (11) GISW, (12) MGSF, (13) VSIL, (14) HSPA, (15) DPF, (16) RY, (17) RF, (18) NW, (19) RL, (20) GVI, (21) GSL, (22) SY, and (23) GPA. […]

[6] = tested on: spontaneously hypertensive rats (SHRs); assay: Antihypertensive effect in SHRs after a single oral administration (tail-cuff blood pressure); type: in vivo, rat; details: 10 and 20 mg/kg single oral dose, SHR; data not shown
[7] = 100 μM test substance, PE 0.3 μM, endothelium-intact rings, mean ± S.E. (Figure 2), SEM

For ERKIKVYL, the IC50 (ACE; ref Fujita et al. 2000) is given as 1.2 µM and the “reduction of blood pressure in SHRs (in words)” value [1] is given as “none of them were effective”.
In the case of KTCGYKTCGY [two-repeated KTCGY], the “PE-induced aortic ring tension (PE plateau = 100%)” value [2, 7] is reported as 46.05 ± 8.02% and the “PE-induced endothelium-denuded aortic ring tension (PE plateau = 100%)” value [3] is reported as 66.59 ± 14.84%.
In the case of `N[C@@H](Cc1ccc(O)cc1)C(=O)O` [Tyr], the “oxygen radical absorbance capacity (ORAC) activity” value (shortened to “oxygen radical absorbance capacity”) [4] is listed as 1.574 μmole TE/μmole.
For “RADHPF [ovokinin (2–7), hexa-peptide isolated from chymotryptic ovalbumin hydrolysates]”, the IC50 (ACE; ref Matoba et al. 1999) is listed as > 1000 µM.
In the case of `C[C@H](CS)C(=O)N1CCC[C@H]1C(=O)O` [captopril, reference compound], the “PE-induced aortic ring tension (PE plateau = 100%)” value ([2]; 100 µM, SEM) is reported as 26.81 ± 5.54%, the “aortic ring relaxation in endothelium-denuded rings (in words)” value (“aortic ring relaxation” for short) [3] is reported as “not endothelium-denuded” and the “average reduced SBP” value ([5]; 10 mg/kg single oral dose, 2-h) is reported as 26.85 mmHg. For the same compound, the “average reduced SBP” value ([5]; 10 mg/kg single oral dose, 4-h) was 24.97 mmHg, the “average reduced SBP” value ([5]; 10 mg/kg single oral dose, 6-h) was 29.82 mmHg and the “average reduced SBP” value ([5]; 10 mg/kg single oral dose, 8-h) was 24 mmHg. For the same compound, the “average reduced SBP” value ([5]; 10 mg/kg single oral dose, 24-h) was 13.80 mmHg.
For FFGRCVSP, the IC50 (ACE; ref Fujita et al. 2000) is listed as 0.4 µM and the “reduction of blood pressure in SHRs (in words)” value [1] is listed as “none of them were effective”.
In the case of `N[C@@H](Cc1c[nH]cn1)C(=O)O` [His], the “oxygen radical absorbance capacity” value [4] is listed as 0.073 μmole TE/μmole.
In the case of `N[C@@H](Cc1ccccc1)C(=O)O` [Phe], the “oxygen radical absorbance capacity” value [4] is given as 0.0025 μmole TE/μmole.
For `N[C@@H](Cc1c[nH]c2ccccc12)C(=O)O` [Trp], the “oxygen radical absorbance capacity” value [4] is listed as 4.649 μmole TE/μmole.
For `CSCC[C@H](N)C(=O)O` [Met], the “oxygen radical absorbance capacity” value [4] is given as 1.126 μmole TE/μmole.
For “KTCGY [penta-peptide, residues 52–56 of dioscorin B]”, the “ACE inhibition (%)” value (ACE (rabbit lung)) was “higher than 50%”, the “PE-induced aortic ring tension (PE plateau = 100%)” value [2, 7] was 26.97 ± 7.48% and the “aortic ring relaxation” value [3] was “not endothelium-denuded”. For the same compound, the “average reduced SBP” value ([5]; 10 mg/kg single oral dose, 6-h) was 24.17 mmHg, the “average reduced SBP” value ([5]; 10 mg/kg single oral dose, 8-h) was 11.93 mmHg and the “average reduced SBP” value ([5]; 20 mg/kg single oral dose, 2-h) was 24.20 mmHg. The “average reduced SBP” value ([5]; 20 mg/kg single oral dose, 4-h) was 26.24 mmHg, the “average reduced SBP” value ([5]; 20 mg/kg single oral dose, 6-h) was 31.03 mmHg and the “average reduced SBP” value ([5]; 20 mg/kg single oral dose, 8-h) was 21.40 mmHg. For the same compound, the “lowering of diastolic blood pressure (in words)” value [6] was “not diastolic blood pressure”.
With “KRIHF [penta-peptide, residues 118–122 of dioscorin A and dioscorin B]” the “ACE inhibition (%)” value (ACE (rabbit lung)) was “higher than 50%”, the “PE-induced aortic ring tension (PE plateau = 100%)” value ([2]; 10 μM test substance, PE 0.3 μM, endothelium-intact rings) was 80.26 ± 7.82% and the “PE-induced aortic ring tension (PE plateau = 100%)” value [2, 7] was 19.19 ± 7.63%. The “aortic ring relaxation” value [3] was “not endothelium-denuded”, the “average reduced SBP” value ([5]; 10 mg/kg single oral dose, 2-h) was 17.30 mmHg and the “average reduced SBP” value ([5]; 10 mg/kg single oral dose, 4-h) was 21.95 mmHg. For the same compound, the “average reduced SBP” value ([5]; 10 mg/kg single oral dose, 6-h) was 21.47 mmHg, the “average reduced SBP” value ([5]; 10 mg/kg single oral dose, 8-h) was 16.65 mmHg and the “average reduced SBP” value ([5]; 20 mg/kg single oral dose, 2-h) was 18.57 mmHg. For the same compound, the “average reduced SBP” value ([5]; 20 mg/kg single oral dose, 4-h) was 19.64 mmHg, the “average reduced SBP” value ([5]; 20 mg/kg single oral dose, 6-h) was 20.87 mmHg and the “average reduced SBP” value ([5]; 20 mg/kg single oral dose, 8-h) was 8.99 mmHg. The “lowering of diastolic blood pressure (in words)” value [6] was “not diastolic blood pressure”.
With TCGYTCGY [two-repeated TCGY] the “PE-induced aortic ring tension (PE plateau = 100%)” value [2, 7] was 43.52 ± 6.42% and the “PE-induced endothelium-denuded aortic ring tension (PE plateau = 100%)” value [3] was 74.44 ± 15.13%.
For `N[C@@H](CS)C(=O)O` [Cys], the “oxygen radical absorbance capacity” value [4] is listed as 0.1492 μmole TE/μmole.
